The values that follow come from patent publication US20090291938A1 (TAKEDA PHARMACEUTICAL COMPANY LIMITED, priority 2007, published 2009).

The assay relates to HT29 human colorectal adenocarcinoma cell line. Nature of the assay: cell proliferation assay (Cell Titer-Glo luminescent cell viability assay). Type of assay: cell-based. Conditions: read-out: pIC50 (converted). The method in brief: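 Cells grown in DMEM with 10% FBS and exposed to compounds for 72 h. Viability read by CellTiter-Glo luminescence, expressed as percentage of DMSO-treated cells.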
(In general: ATP-based viability assays read luminescence as a measure of living cells.)

The mark [1] stands for this setting: HT-29, cell proliferative assay, HT29 cells, 72 hr treatment, values given as ranges.

Read-outs that look alike come from different tables or passages of the source. Bounds are passed on as bounds.

Take `COc1cc(C(=O)N[C@H]2CCN(C)C2)ccc1Nc1ncc2c(n1)N(C1CCCC1)CCC(=O)N2C` [Compound 52, (S)-4-(9-cyclopentyl-5-methyl-6-oxo-6,7,8,9-tetrahydro-5H-pyrimido[4,5-b][1,4]diazepin-2-ylamino)-3-methoxy-N-(1-methylpyrrolidin-3-yl)benzamide]: the IC50 under setting [1] was over 10 nM.
Still for that read-out and setting: the figure for `C=CC[C@H]1CN(C2CCCC2)c2nc(Nc3ccc(C(=O)N[C@@H]4CCN(C)C4)cc3OC)ncc2N(C)C1=O` [Compound 204, 4-((S)-7-allyl-9-cyclopentyl-5-methyl-6-oxo-6,7,8,9-tetrahydro-5H-pyrimido[4,5-b][1,4]diazepin-2-ylamino)-3-methoxy-N-((R)-1-methylpyrrolidin-3-yl)benzamide] is 1 to 2.51 nM; for `C=CC1(C)CN(C2CCCC2)c2nc(Nc3ccc(C(=O)N[C@H]4CCCNC4)cc3OC)ncc2N(C)C1=O` (stereo partly drawn) [Compound 246, 4-(9-cyclopentyl-5,7-dimethyl-6-oxo-7-vinyl-6,7,8,9-tetrahydro-5H-pyrimido[4,5-b][1,4]diazepin-2-ylamino)-3-methoxy-N-((S)-piperidin-3-yl)benzamide] it is 1 to 2.51 nM.
The same measure, in the same setting: the figure for `C#CCC1CN(C2CCCC2)c2nc(Nc3ccc(C(=O)NC4CCN(C)CC4)cc3OC)ncc2N(C)C1=O` (centres unmarked) [Compound 209] is 1 to 2.51 nM.
On the same count and under the same terms, the figure for `COc1cc(C(=O)NC2CCN(C)CC2)ccc1Nc1ncc2c(n1)N(C1CCCCC1)CC(C1CC1)C(=O)N2C` (centres unmarked) [Compound 156, 4-(9-cyclohexyl-7-cyclopropyl-5-methyl-6-oxo-6,7,8,9-tetrahydro-5H-pyrimido[4,5-b][1,4]diazepin-2-ylamino)-3-methoxy-N-(1-methylpiperidin-4-yl)benzamide] is over 10 nM.
`COc1cc(C(=O)NCc2ccncc2)ccc1Nc1ncc2c(n1)N(C1CCCC1)CCC(=O)N2C` [Compound 71, 4-(9-cyclopentyl-5-methyl-6-oxo-6,7,8,9-tetrahydro-5H-pyrimido[4,5-b][1,4]diazepin-2-ylamino)-3-methoxy-N-(pyridin-4-ylmethyl)benzamide]: under setting [1], the IC50 is 3.16 to 10 nM.
The same measure, in the same setting: to `C=C(F)CC1CN(C2CCCC2)c2nc(Nc3ccc(C(=O)NC4CCN(C)CC4)cc3OC)ncc2N(C)C1=O` (centres unmarked) [Compound 231, 4-(9-cyclopentyl-7-(2-fluoroallyl)-5-methyl-6-oxo-6,7,8,9-tetrahydro-5H-pyrimido[4,5-b][1,4]diazepin-2-ylamino)-3-methoxy-N-(1-methylpiperidin-4-yl)benzamide] belongs over 10 nM.
On the same count and under the same terms, to `COc1cc(C(=O)NCCN2CCCC2=O)ccc1Nc1ncc2c(n1)N(C1CCCC1)CCC(=O)N2C` [Compound 46, 4-(9-cyclopentyl-5-methyl-6-oxo-6,7,8,9-tetrahydro-5H-pyrimido[4,5-b][1,4]diazepin-2-ylamino)-3-methoxy-N-(2-(2-oxopyrrolidin-1-yl)ethyl)benzamide] belongs 3.16 to 10 nM; to `C=CC1(C)CN(C2CCCC2)c2nc(Nc3ccc(C(=O)NC4CN(C)C4)cc3OC)ncc2N(C)C1=O` (centres unmarked) [Compound 247, 4-(9-cyclopentyl-5,7-dimethyl-6-oxo-7-vinyl-6,7,8,9-tetrahydro-5H-pyrimido[4,5-b][1,4]diazepin-2-ylamino)-3-methoxy-N-(1-methylazetidin-3-yl)benzamide], 3.16 to 10 nM.
As to `COc1cc(C(=O)NCCCN(C)C)ccc1Nc1ncc2c(n1)N(C1CCCC1)CC(C)(C)C(=O)N2C` [Compound 89, 4-(9-cyclopentyl-5,7,7-trimethyl-6-oxo-6,7,8,9-tetrahydro-5H-pyrimido[4,5-b][1,4]diazepin-2-ylamino)-N-(3-(dimethylamino)propyl)-3-methoxybenzamide], the IC50 under setting [1] was 3.16 to 10 nM.
In the case of `COc1cc(C(=O)NC2CCN(C)CC2)ccc1Nc1ncc2c(n1)N(C(C)C)CC(C)(C)C(=O)N2C` [Compound 155, 4-(9-isopropyl-5,7,7-trimethyl-6-oxo-6,7,8,9-tetrahydro-5H-pyrimido[4,5-b][1,4]diazepin-2-ylamino)-3-methoxy-N-(1-methylpiperidin-4-yl)benzamide], under setting [1], the IC50 was 3.16 to 10 nM.
The same measure, in the same setting: to `C=CC[C@H]1CN(C2CCCC2)c2nc(Nc3ccc(C(=O)N[C@H]4CCN(C)C4)cc3OC)ncc2N(C)C1=O` [Compound 205, 4-((S)-7-allyl-9-cyclopentyl-5-methyl-6-oxo-6,7,8,9-tetrahydro-5H-pyrimido[4,5-b][1,4]diazepin-2-ylamino)-3-methoxy-N-((S)-1-methylpyrrolidin-3-yl)benzamide] belongs under 1 nM.
On the same count and under the same terms, to `COc1cc(C(=O)N[C@@H]2CCN(C)C2)ccc1Nc1ncc2c(n1)N(C1CCCC1)CC(C)(C)C(=O)N2C` [Compound 96, (R)-4-(9-cyclopentyl-5,7,7-trimethyl-6-oxo-6,7,8,9-tetrahydro-5H-pyrimido[4,5-b][1,4]diazepin-2-ylamino)-3-methoxy-N-(1-methylpyrrolidin-3-yl)benzamide] belongs 3.16 to 10 nM; to `COc1cc(C(=O)NCC2CCNCC2)ccc1Nc1ncc2c(n1)N(C1CCCC1)CCC(=O)N2C` [Compound 60, 4-(9-cyclopentyl-5-methyl-6-oxo-6,7,8,9-tetrahydro-5H-pyrimido[4,5-b][1,4]diazepin-2-ylamino)-3-methoxy-N-(piperidin-4-ylmethyl)benzamide], over 10 nM.
On to `CC(C)Oc1cc(C(=O)NC2CCN(C)CC2)ccc1Nc1ncc2c(n1)N(C1CCCC1)CC(C)(C)C(=O)N2C` [Compound 122, 4-(9-cyclopentyl-5,7,7-trimethyl-6-oxo-6,7,8,9-tetrahydro-5H-pyrimido[4,5-b][1,4]diazepin-2-ylamino)-3-isopropoxy-N-(1-methylpiperidin-4-yl)benzamide], for which, where the note is “HT-29, 72 h”, the IC50 is over 10 nM.
As to `COc1cc(C(=O)N[C@H]2CCN(C)C2)ccc1Nc1ncc2c(n1)N(C1CCCC1)CC1(CC1)C(=O)N2C` [Compound 167, (S)-4-(9′-cyclopentyl-5′-methyl-6′-oxo-5′,6′,8′,9′-tetrahydrospiro[cyclopropane-1,7′-pyrimido[4,5-b][1,4]diazepine]-2′-ylamino)-3-methoxy-N-(1-methylpyrrolidin-3-yl)benzamide], the IC50 under setting [1] was 3.16 to 10 nM.
With `COc1cc(C(=O)NN2CCN(C)CC2)ccc1Nc1ncc2c(n1)N(C1CCCCC1)CC(C)(C)C(=O)N2C` [Compound 112, 4-(9-cyclohexyl-5,7,7-trimethyl-6-oxo-6,7,8,9-tetrahydro-5H-pyrimido[4,5-b][1,4]diazepin-2-ylamino)-3-methoxy-N-(4-methylpiperazin-1-yl)benzamide], the IC50 under setting [1] was 1 to 2.51 nM.
Same read-out and setting: the figure for `COc1cc(C(=O)NCCNC(C)=O)ccc1Nc1ncc2c(n1)N(C1CCCC1)CCC(=O)N2C` [Compound 43, N-(2-acetamidoethyl)-4-(9-cyclopentyl-5-methyl-6-oxo-6,7,8,9-tetrahydro-5H-pyrimido[4,5-b][1,4]diazepin-2-ylamino)-3-methoxybenzamide] is over 10 nM.
Still for that read-out and setting: to `CNC(=O)c1ccc(Nc2ncc3c(n2)N(C2CCCC2)CCC(=O)N3C)c(OC)c1` [Compound 10, 4-[(9-cyclopentyl-5-methyl-6-oxo-6,7,8,9-tetrahydro-5H-pyrimido[4,5-b][1,4]diazepin-2-yl)amino]-3-methoxy-N-methylbenzamide] belongs 3.16 to 10 nM.
Consider `COc1cc(C(=O)N[C@@H]2CCNC2)ccc1Nc1ncc2c(n1)N(C1CCCC1)CCC(=O)N2C` [Compound 41, (R)-4-(9-cyclopentyl-5-methyl-6-oxo-6,7,8,9-tetrahydro-5H-pyrimido[4,5-b][1,4]diazepin-2-ylamino)-3-methoxy-N-(pyrrolidin-3-yl)benzamide], for which the IC50 under setting [1] is over 10 nM.
Regarding `COc1cc(C(=O)NCC2CCN(C(=O)C3CC3)CC2)ccc1Nc1ncc2c(n1)N(C1CCCC1)CCC(=O)N2C` [Compound 76, 4-(9-cyclopentyl-5-methyl-6-oxo-6,7,8,9-tetrahydro-5H-pyrimido[4,5-b][1,4]diazepin-2-ylamino)-N-((1-(cyclopropanecarbonyl)piperidin-4-yl)methyl)-3-methoxybenzamide], the IC50 under setting [1] was over 10 nM.
As to `CC[C@]1(C)CN(C2CCCCC2)c2nc(Nc3ccc(C(=O)NC4CN(C)C4)cc3OC)ncc2N(C)C1=O` [Compound 145, (R)-4-(9-cyclohexyl-7-ethyl-5,7-dimethyl-6-oxo-6,7,8,9-tetrahydro-5H-pyrimido[4,5-b][1,4]diazepin-2-ylamino)-3-methoxy-N-(1-methylazetidin-3-yl)benzamide], the IC50 under setting [1] was 3.16 to 10 nM.
Still for that read-out and setting: to `C=CC[C@H]1CN(C2CCCC2)c2nc(Nc3ccc(C(=O)N[C@@H]4CCNC4)cc3OC)ncc2N(C)C1=O` [Compound 202, 4-((S)-7-allyl-9-cyclopentyl-5-methyl-6-oxo-6,7,8,9-tetrahydro-5H-pyrimido[4,5-b][1,4]diazepin-2-ylamino)-3-methoxy-N-((R)-pyrrolidin-3-yl)benzamide] belongs 1 to 2.51 nM.
On the same count and under the same terms, the figure for `COc1cc(C(=O)NC2CCCNCC2)ccc1Nc1ncc2c(n1)N(C1CCCCC1)CC(C)(C)C(=O)N2C` (centres unmarked) [Compound 119, N-(azepan-4-yl)-4-(9-cyclohexyl-5,7,7-trimethyl-6-oxo-6,7,8,9-tetrahydro-5H-pyrimido[4,5-b][1,4]diazepin-2-ylamino)-3-methoxybenzamide] is 3.16 to 10 nM; for `C=CCC1CN(C2CCCCC2)c2nc(Nc3ccc(C(=O)N[C@@H]4CCCNC4)cc3OC)ncc2N(C)C1=O` (stereo partly drawn) [Compound 191, 4-(7-allyl-9-cyclohexyl-5-methyl-6-oxo-6,7,8,9-tetrahydro-5H-pyrimido[4,5-b][1,4]diazepin-2-ylamino)-3-methoxy-N-((R)-piperidin-3-yl)benzamide] it is 3.16 to 10 nM.
The same measure, in the same setting: the figure for `COc1cc(C(=O)N[C@@H]2CCCNC2)ccc1Nc1ncc2c(n1)N(C1CCCCC1)CC(C)(C)C(=O)N2C` [Compound 110, (R)-4-(9-cyclohexyl-5,7,7-trimethyl-6-oxo-6,7,8,9-tetrahydro-5H-pyrimido[4,5-b][1,4]diazepin-2-ylamino)-3-methoxy-N-(piperidin-3-yl)benzamide] is 1 to 2.51 nM.
